# US10399966B2, “Compounds for treatment of trypanosomes and neurological pathogens and uses thereof” (The University of North Carolina at Chapel Hill, priority 2016, dated 2019)
# Where two headings read alike, the source gives them in different places.
# Legend:
# [1] = Mouse oral pharmacokinetics; format: in vivo
# Method: […] Experiments were performed with groups of three mice per compound. Plasma was separated and extracted with acetonitrile for measurements of compound concentrations by liquid chromatography/tandem mass spectrometry.
# T. b. brucei = assay: In vitro antitrypanosomal activity against T. brucei (growth inhibition); format: cell-based, Trypanosoma brucei
# Procedure, shortened: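 Dose-response EC50 against T. brucei parasites with 0.4% DMSO final, 48 h at 37 °C; parasite density quantified by ATP luminescence (CellTiter-Glo).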
# [2] = Metabolic stability in human liver microsomes; format: in vitro ADME
# [3] = system: human lymphocytes CRL-8155; assay: Cytotoxicity against CRL-8155 cells
# Method: The selectivity of each compound for the parasite over each of the two cell lines was calculated.
# [4] = Distribution between mouse plasma and brain (brain penetration, ip); format: in vivo
# Procedure, shortened: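 Mice (n=3) received a single 5 mg/kg ip dose in 7% Tween 80, 3% ethanol, 5% DMSO, 0.9% saline and were sacrificed 1 h post-dose. Plasma and acetonitrile brain homogenates analysed by LC/MS/MS; brain concentration corrected for 2.5% vasculature volume, assuming 1 g = 1 mL.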
# [5] = Efficacy PK blood samples, acute model; format: in vivo, mouse; conditions: 50 mg/kg po b.i.d.
# Method: In a model of the acute phase of HAT, five mice infected with T. b. rhodesiense STIB900 were given the test compound at 50 mg/kg po b.i.d.×4 days, beginning 2 days post-infection. Efficacy PK blood samples were collected from three of the five mice prior to dose 7, and at 1 h and 6 h post-dose. Average plasma levels of the test compound were 9.1±7.6 μM (pre-dose), 18.6±7.2 μM (1 h), and 15.0±4.2 μM (6 h). Compound 1 attained 5/5 cures as determined by the absence of detectable parasitemia in any of the treated mice 60 days post-infection (FIG. 1).
# [6] = Brain and plasma time-course after oral dosing; format: in vivo, mouse
# Method: The brain and plasma concentrations of compound 1 were studied in a time-course experiment following oral dosing at 50 mg/kg (Table 15). […] At 24 h, the plasma concentrations are undetectable and brain levels are down to sub-micromolar concentrations. Compared to the previous experiment (Table 14), the BPR ratio for 1 is lower at 1 h post-dose (1.48 vs. 4.0) probably due to the oral route of administration (as opposed to the ip route used before) leading to slower systemic absorption and distribution.
# [7] = Table 14, mice, single ip dose 5 mg/kg, one hour post-dose, ± SEM of 3 mice (compound 3: 6 mice)
# [8] = single oral dose 50 mg/kg, mice, 1 h
# [9] = single oral dose 50 mg/kg, mice, 4 h
# [10] = single oral dose 50 mg/kg, mice, 8 h
smiles,measurement,setting,value
"O=C(Nc1ccc2sc(-c3ccc(F)c(F)c3)nc2c1)N1CC[C@H](F)C1 [Compound 1, (S)-2-(3,4-Difluorophenyl)-5-(3-fluoro-N-pyrrolidylamido)benzothiazole]",Mouse oral PK Tlast,[1]; Table 5,1440 min
same,Mouse oral PK Average AUC,"[1]; Table 5, n = 3",13217 ± 2156 (n = 3) min * μmol/L
same,AUC0 min-∞,"[1]; Table 13, mice, single 50 mg/kg oral gavage, vehicle Phosal 53 MCT(60%), PEG400 (30%), EtOH (10%)",14673 ± 2833 µM·min
same,Cmax,"[1]; Table 13, mice, single 50 mg/kg oral gavage, vehicle Phosal 53 MCT(60%), PEG400 (30%), EtOH (10%), read-out: Cmax",18.6 ± 5.54 µM
same,Cmax,"[1]; Table 13, mice, single 50 mg/kg oral gavage, vehicle Tween 80 (7%), EtOH (3%), DMSO (5%) in 0.9% NaCl, ± SEM of 3 mice, 50 mg/kg, read-out: Cmax",23.3 µM
same,AUC0 min-∞,"[1]; Table 13, mice, single 50 mg/kg oral gavage, vehicle methylcellulose cP 400 (0.5%), Tween 80 (0.5%) in water",6352 ± 469 µM·min
same,Cmax,"[1]; Table 13, mice, single 50 mg/kg oral gavage, vehicle methylcellulose cP 400 (0.5%), Tween 80 (0.5%) in water, read-out: Cmax",8.54 ± 0.41 µM
same,percent of the Cmax remaining,"[1]; mouse oral 50 mg/kg, 24 h time point",Less than 1%
same,Cmax,"[1]; mouse, plasma, po, 50 mg/kg, Table 5, n = 3, read-out: Mouse oral PK Average Cmax",23.3 ± 5.22 µM
same,Tmax,"[1]; mouse, plasma, po, 50 mg/kg, Table 5, read-out: Mouse oral PK Tmax (converted)",2 h
same,EC90,"T. b. brucei; Table 1, Trypanosoma brucei, read-out: EC90",54.8 nM
same,EC50,"T. b. brucei; Trypanosoma brucei, Table 1, Trypanosoma brucei, read-out: EC50",34.8 nM
same,EC50,"T. b. brucei; Trypanosoma brucei, Table 6, read-out: T. brucei EC50",34.8 nM
same,EC50,"T. b. brucei; Trypanosoma brucei, Table 8, read-out: T. brucei EC50",34.8 nM
same,EC50,"T. b. brucei; Trypanosoma brucei, Table 11, read-out: T. b. brucei EC50",34.8 nM
same,EC50,"T. b. brucei; Trypanosoma brucei, Table 12, read-out: T. b. brucei EC50",34.8 nM
same,EC50,"T. b. brucei; Trypanosoma brucei, Table 9, read-out: T. brucei EC50",34.8 nM
same,EC90,"T. b. brucei; Trypanosoma brucei, Table 9, read-out: T. brucei EC90",54.8 nM
same,"Human microsomes, percentage of compound remaining","[2]; Table 12, after 60 min (where t1/2 > 60 min)",53%
same,half-life at 1.5 μM,"[2]; both sexes, human, liver microsomes, pH 7.4, Table 12, 37° C., NADPH (1 mM), microsomes 0.5 mg/mL, test compounds 1.5 μM, read-out: Human microsomes t1/2",> 1 h
same,half-life at 3 μM,"[2]; both sexes, liver microsomes, pH 7.4, human microsomes, read-out: microsomal half-life",1 h
same,toxicity to the CRL-8155 cells (in words),[3],no detectable toxicity
same,EC50,"[3]; read-out: CRL-8155 EC50, concentration required to inhibit growth by 50%, human lymphoblasts",> 50000 nM
same,EC90,"[3]; read-out: CRL-8155 EC90, concentration required to inhibit growth by 90%, human lymphoblasts",> 50000 nM
same,Average brain/plasma ratio,"[4]; Table 2, mouse, n = 3",4.0000 ± 0.624
same,Average [compound] brain,"[4]; Table 8, groups of 3 mice (compound 3: ± SEM of 6 mice)",9.07 ± 6.88 µM
same,Brain/plasma ratio,"[4]; Table 14, mice, single ip dose 5 mg/kg, one hour post-dose",4.0
same,[compound]Brain,[4]; [7],9.07 ± 3.973 µM
same,[compound]Plasma,[4]; [7],2.27 ± 0.888 µM
same,concentration at 1 h,"[4]; mouse, in vivo, 5 mg/kg, Table 2, mouse, n = 3, read-out: Average concentration in brain",9.07 ± 6.88 µM
same,concentration at 1 h,"[4]; mouse, in vivo, 5 mg/kg, Table 2, mouse, n = 3, read-out: Average concentration in plasma",2.27 ± 1.54 µM
same,concentration at 60 min,"[4]; mouse, in vivo, 5 mg/kg, Table 5 r15, mouse brain penetration (60 min), n = 3",2.27 ± 1.54 µM
same,concentration at 1 h,"[4]; mouse, in vivo, 5 mg/kg, Table 8, groups of 3 mice (compound 3: ± SEM of 6 mice), read-out: Average [compound] plasma",2.27 ± 1.54 µM
same,Average plasma levels,[5]; 1 h post dose 7,18.6 ± 7.2 µM
same,Average plasma levels,[5]; 6 h post dose 7,15.0 ± 4.2 µM
same,Average plasma levels,[5]; prior to dose 7 (pre-dose),9.1 ± 7.6 µM
same,"AUC0 min-∞, brain","[6]; mouse, in vivo, po, 50 mg/kg",43116.8 ± 2304 µM·min
same,"AUC0 min-∞, plasma","[6]; mouse, in vivo, po, 50 mg/kg",10798 ± 1975 µM·min
same,[compd]Brain,"[6]; mouse, in vivo, po, 50 mg/kg",sub-micromolar
same,Brain/plasma ratio,[6]; [8],1.48
same,[compd]Brain,[6]; [8],38.23 ± 13.51 µM
same,[compd]Plasma,[6]; [8],27.14 ± 9.91 µM
same,Brain/plasma ratio,[6]; [9],4.43
same,[compd]Brain,[6]; [9],45.2 ± 10.4 µM
same,[compd]Plasma,[6]; [9],10.25 ± 2.21 µM
same,Brain/plasma ratio,[6]; [10],5.48
same,[compd]Brain,[6]; [10],48.08 ± 2.47 µM
same,[compd]Plasma,[6]; [10],8.97 ± 1.05 µM
